Test results published in article PMC8877724 (Journal of medicinal chemistry, 2020).
Entries after “also recorded” stand apart in the source; their conditions may differ. Read-outs that look alike come from different tables or passages of the source.

Key:
[1] = Reaction with excess cysteamine monitored by 1H NMR; format: physicochemical
[2] = test system: NF-κB signaling in A549 cells bearing a stably transfected NF-κB-driven luciferase reporter gene; test: NF-κB luciferase reporter assay, TNF-α induced; format: cell-based; conditions: tested at 5-20 μM, 20 μM the highest concentration tested
[3] = test system: NF-κB signaling in HEK293 cells containing a stably transfected NF-κB-driven SEAP reporter gene; test: NF-κB secreted alkaline phosphatase; format: cell-based, human; conditions: tested at 1-7.5 μM, SEAP reporter assay
[4] = test system: Vero cells; test: Vero cell viability assay; format: cell-based, African green monkey; conditions: 48 h
[5] = target: T1, La antigen (Homo sapiens, UniProt P05455); conditions: cited from earlier work
T1 sequence (P05455 100-324 limits assumed): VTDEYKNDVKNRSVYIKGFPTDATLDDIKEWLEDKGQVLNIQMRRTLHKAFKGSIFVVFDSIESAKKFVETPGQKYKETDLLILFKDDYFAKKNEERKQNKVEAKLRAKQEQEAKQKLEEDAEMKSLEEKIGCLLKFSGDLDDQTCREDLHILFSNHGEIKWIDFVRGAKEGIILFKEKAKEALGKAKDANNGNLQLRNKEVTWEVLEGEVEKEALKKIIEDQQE

[6] = test system: HEK293/NF-κB-SEAP cells; test: Cellular cytotoxicity accompanying the SEAP reporter assay; format: cell-based, human; conditions: 7.5 μM
[7] = cited from earlier work
[8] = test system: A549/NF-κB-luc cells; conditions: 10 μM, A549/NF-κB-luc assay; cited from earlier work

**Q.** For “3-methylene-9-phenyl-3,3a,4,5-tetrahydroazuleno[4,5-b]furan-2,8(7H,9bH)-dione [Compound S17]”, which Half-life ([1]; HSCH2CH2NH2 (15 equiv), CDCl3 (0.006 M), rt) is on record?
**A.** 7 min

**Q.** For `C=C1C(=O)N[C@@H]2C3=C(c4ccccc4)C(=O)CC3=C(C)CC[C@@H]12` (relative stereo) [Compound 45, (3aS*,9bS*)-6-Methyl-3-methylene-9-phenyl-3,3a,4,5-tetrahydro-1H-azuleno[4,5-b]pyrrole-2,8(7H,9bH)-dione], which “NF-κB inhibition (in words)” value [2] is on record?
**A.** did not inhibit NF-κB signaling; also recorded: no NF-κB inhibition

**Q.** Which results are given for `C=C1C(=O)N[C@@H]2C3=CC(=O)CC3=C(C)CC[C@@H]12` (relative stereo) [Compound 47, (3aS*,9bS*)-6-Methyl-3-methylene-1,3a,4,5,7,9b-hexahydro-2H-azuleno[4,5-b]pyrrole-2,8(3H)-dione]?
**A.** NF-κB inhibition (in words) [2]: did not inhibit NF-κB signaling; also recorded: little or no inhibition; NF-κB inhibition (in words) [3]: little or no inhibition; cytotoxicity (in words) [4]: low cytotoxicity

**Q.** For `C=C1C(=O)N(C)[C@@H]2C3=C(c4ccccc4)C(=O)CC3=C(C)CC[C@@H]12` (relative stereo) [Compound 48, (3aS*,9bS*)-1,6-Dimethyl-3-methylene-9-phenyl-1,3a,4,5,7,9b-hexahydro-2H-azuleno[4,5-b]pyrrole-2,8(3H)-dione], which “NF-κB inhibition (in words)” value [2] is on record?
**A.** no inhibitory activities

**Q.** Which “NF-κB inhibition (in words)” value [2] does the source give for `C=C1C(=O)N(c2ccccc2)[C@@H]2C3=C(c4ccccc4)C(=O)CC3=C(C)CC[C@@H]12` (relative stereo) [Compound 49, (3aS*,9bS*)-6-Methyl-3-methylene-1,9-diphenyl-1,3a,4,5,7,9b-hexahydro-2H-azuleno[4,5-b]pyrrole-2,8(3H)-dione] here?
**A.** no inhibitory activities; also recorded: little NF-κB inhibitory activity; also recorded: no NF-κB inhibition

**Q.** Which “NF-κB inhibition (in words)” value [2] does the source give for `C=C1C(=O)N(c2ccc(OC)cc2)[C@@H]2C3=C(c4ccccc4)C(=O)CC3=C(C)CC[C@@H]12` (relative stereo) [Compound 52, (3aS*,9bS*)-1-(4-Methoxyphenyl)-6-methyl-3-methylene-9-phenyl-1,3a,4,5,7,9b-hexahydro-2H-azuleno[4,5-b]pyrrole-2,8(3H)-dione] here?
**A.** no inhibitory activities; also recorded: little NF-κB inhibitory activity; also recorded: no NF-κB inhibition

**Q.** For `C=C1C(=O)N(S(=O)(=O)c2ccc(C)cc2)[C@@H]2C3=C(c4ccccc4)C(=O)CC3=C(C)CC[C@@H]12` (relative stereo) [Compound 54, (3aS*,9bS*)-6-Methyl-3-methylene-9-phenyl-1-tosyl-1,3a,4,5,7,9b-hexahydro-2H-azuleno[4,5-b]pyrrole-2,8(3H)-dione], which “time to complete reaction with cysteamine” value ([1]; cysteamine (15 equiv), CDCl3, rt, disappearance of methylene resonances by 1H NMR) is on record?
**A.** less than 10 min

**Q.** Which “ALARM NMR result” value [5] does the source give for `C=CC(=O)N1CCC[C@@H](n2nc(-c3ccc(Oc4ccccc4)cc3)c3c(N)ncnc32)C1` [Ibrutinib] here?
**A.** ALARM NMR negative

**Q.** What does the source list for `C=C1C(=O)O[C@@H]2[C@H]3O[C@]3(C)CC/C=C(\C)CC[C@@H]12` [PTL, parthenolide]?
**A.** cytotoxicity (in words) [6]: moderate level of cytotoxicity; time to complete reaction with cysteamine [7]: less than 5 min; cytotoxicity (in words) [8]: no cytotoxicity
